{"source": "patent US20230312582A1", "about": "“Salts Of Nitrogen-Containing Heterocyclic Compound, And Solid Forms Of Salts, Pharmaceutical Composition And Use Thereof” (Wuhan Humanwell Innovative Drug Research And Development …, priority 2020, published 2023)", "key": {"[1]": {"assay": "Hygroscopicity by dynamic vapor sorption (DVS)", "assay_type": "physicochemical", "conditions": "for After DVS test Whether the crystal form is changed: 0% RH to 95% RH to 0% RH; for After DVS test Whether the crystal form is changed / Hygroscopicity / Vapor sorption (25° C./80% RH): 25° C.; for Hygroscopicity / Vapor sorption (25° C./80% RH): DVS; for DVS curve vapor sorption: at 0% RH to 80% RH; for Risk evaluation: hygroscopicity evaluation", "experimental": "Dynamic vapor sorption (DVS) curves are acquired on a DVS Intrinsic in SMS (Surface Measurement System). The relative humidity at 25° C. is corrected with the deliquescence points of LiCl, Mg(NO3)2 and KCl.\nHygroscopicity of the crystal form A of hydrochloride, the crystal form A of fumarate, the crystal form A of benzenesulfonate and the free base crystal form A prepared repeatedly was evaluated using a dynamic vapor sorption (DVS) instrument. Starting at 0% relative humidity (0% RH), the test acquired the percentage change of mass of the sample when humidity changed (0% RH to 95% RH to 0% RH) at a constant temperature of 25° C."}, "[2]": {"assay": "Polarizing microscope (PLM) image, particle size", "assay_type": "physicochemical", "conditions": "room temperature", "source_text": "The polarizing microscope data are acquired by an Axio Lab. A1 upright microscope at room temperature."}, "[3]": {"assay": "Dynamic solubility in water and three biological vehicles", "assay_type": "physicochemical", "conditions": "for Crystal form change: XRPD of solid; for pH: filtrate; for solubility in each system compared with that of the free base crystal form A: water", "experimental": "The dynamic solubility of the crystal form A of hydrochloride, the crystal form A of fumarate, the crystal form A of benzenesulfonate and the free base crystal form A prepared repeatedly was evaluated in water and three biological vehicles. […] After centrifugation of the samples at each time point (0.45 μm PTFE filter head), the filtrate was determined for HPLC concentration and pH, and the centrifuged solid samples were tested for XRPD."}, "Solid stability, 1 week": {"assay": "Solid stability, 1 week", "assay_type": "physicochemical", "conditions": "for Purity (area %): HPLC; for Crystal form change: XRPD", "experimental": "The crystal form A of hydrochloride, the crystal form A of fumarate, the crystal form A of benzenesulfonate and the free base crystal form A prepared repeatedly were placed at 25° C./60% RH and 40° C./75% RH for 1 week, and then the physical and chemical stability of the samples were tested by XRPD and HPLC. […] No significant purity decrease or crystal form transformation occurred in any of the other samples after being placed under 2 conditions for 1 week."}, "[4]": {"assay": "Stability of crystal form on storage for 6 months", "assay_type": "physicochemical", "conditions": "40° C./75% RH; 25° C./60% RH; 2° C. to 8° C.; polyethylene bag + aluminum foil bag", "source_text": "(the aluminum foil bag is made of light-proof materials and can be protected from light; and the polyethylene bag and the aluminum foil bag are sealed when being packaged)."}, "[5]": {"assay": "Solid stability evaluation at 60° C. for 24 h", "assay_type": "physicochemical", "experimental": "The crystal form A of benzenesulfonate of the compound of formula (I) was used as a starting sample, and 100 polymorph screening tests under different conditions were set. The screening method comprises the following steps: adding an anti-solvent, slowly volatilizing, slowly cooling, suspending and stirring (room temperature and 50° C.), circularly heating and cooling, gas-solid permeation, gas-liquid diffusion, inducing and grinding a high polymer. From the X-ray powder diffraction (XRPD) results of the isolated solid, only one polymorph of benzenesulfonate, i.e., the starting form A, was found. A partial evaluation was completed in the salt form screening stage, so only solid stability evaluation at 60° C. for 24 h was performed."}, "[6]": {"assay": "Pharmacokinetic assay (crystal form) in mice", "assay_type": "in vivo", "conditions": "male, ICR, mouse, plasma, oral intragastric administration 10 mg/kg", "experimental": "In vivo pharmacokinetic assay in mice was performed, wherein the used mice were 9 male ICR mice weighing 20-25 g and fasted overnight. 9 mice were taken and orally intragastrically administered with 10 mg/kg of the compound. […] Blood samples were centrifuged at 8000 rpm for 6 min at 4° C., and plasma was collected and stored at −20° C. The plasma at each time point was taken and added with 3-5 times of acetonitrile solution containing the internal standard for mixing, and the mixed solution was subjected to vortex mixing for 1 min, and centrifuging at 4° C. for 10 min at 13000 rpm. The supernatant was taken and added with 3 times of water for mixing. A proper amount of the mixed solution was taken for LC-MS/MS analysis. The major pharmacokinetic parameters were analyzed using WinNonlin 7.0 software and a non-compartmental model."}, "[7]": {"conditions": "SGF, 4 h, listed as Benzenesulfonate Crystal form"}, "[8]": {"conditions": "SGF, 24 h, listed as Benzenesulfonate Crystal form"}, "[9]": {"conditions": "listed as crystal form A of hydrochloride"}}, "note": "Counter-ions that a name gives are not always drawn."}
{"smiles": "C[C@H](Cc1cnn[nH]1)OCC(=O)N1Cc2cnc(NC3Cc4ccccc4C3)nc2C1", "note": "[Crystal form A of benzenesulfonate]", "values": [{"measurement": "After DVS test Whether the crystal form is changed", "setting": "[1]", "result": "No"}, {"measurement": "Hygroscopicity", "setting": "[1]", "result": "Slightly"}, {"measurement": "Vapor sorption (25° C./80% RH)", "setting": "[1]", "result": 1.45, "unit": "%"}, {"measurement": "DVS curve vapor sorption", "setting": "[1]", "result": "less than 1.46%"}, {"measurement": "Risk evaluation", "setting": "[1]", "result": "None"}, {"measurement": "particle size", "setting": "[2]", "result": "less than 50 μm"}, {"measurement": "Crystal form change", "setting": "[3]; SGF, 1 h", "result": "No"}, {"measurement": "Crystal form change", "setting": "[3]; [7]", "result": "Clear"}, {"measurement": "Crystal form change", "setting": "[3]; [8]", "result": "Clear"}, {"measurement": "pH", "setting": "[3]; FaSSIF, 1 h, listed as Benzenesulfonate Crystal form", "result": 6.0}, {"measurement": "pH", "setting": "[3]; FaSSIF, 4 h, listed as Benzenesulfonate Crystal form", "result": 6.0}, {"measurement": "pH", "setting": "[3]; FaSSIF, 24 h, listed as Benzenesulfonate Crystal form", "result": 6.0}, {"measurement": "pH", "setting": "[3]; FeSSIF, 1 h, listed as Benzenesulfonate Crystal form", "result": 5.0}, {"measurement": "pH", "setting": "[3]; FeSSIF, 4 h, listed as Benzenesulfonate Crystal form", "result": 5.0}, {"measurement": "pH", "setting": "[3]; FeSSIF, 24 h, listed as Benzenesulfonate Crystal form", "result": 5.0}, {"measurement": "pH", "setting": "[3]; H2O, 1 h, listed as Benzenesulfonate Crystal form", "result": 2.5}, {"measurement": "pH", "setting": "[3]; H2O, 4 h, listed as Benzenesulfonate Crystal form", "result": 2.5}, {"measurement": "pH", "setting": "[3]; H2O, 24 h, listed as Benzenesulfonate Crystal form", "result": 2.5}, {"measurement": "pH", "setting": "[3]; SGF, 1 h, listed as Benzenesulfonate Crystal form", "result": 1.9}, {"measurement": "pH", "setting": "[3]; [7]", "result": 1.9}, {"measurement": "pH", "setting": "[3]; [8]", "result": 1.9}, {"measurement": "solubility in each system compared with that of the free base crystal form A", "setting": "[3]; SGF, FaSSIF, FeSSIF", "result": "significantly improved"}, {"measurement": "Purity/initial purity (%)", "setting": "Solid stability, 1 week; 25° C./60% RH", "result": 100.0, "unit": "%"}, {"measurement": "Purity (area %)", "setting": "Solid stability, 1 week; 25° C./60% RH", "result": 99.35, "unit": "area %"}, {"measurement": "Crystal form change", "setting": "Solid stability, 1 week; 25° C./60% RH", "result": "No"}, {"measurement": "Purity/initial purity (%)", "setting": "Solid stability, 1 week; 40° C./75% RH", "result": 99.9, "unit": "%"}, {"measurement": "Purity (area %)", "setting": "Solid stability, 1 week; 40° C./75% RH", "result": 99.20, "unit": "area %"}, {"measurement": "Crystal form change", "setting": "Solid stability, 1 week; 40° C./75% RH", "result": "No"}, {"measurement": "crystal form after being stored for 6 months", "setting": "[4]", "result": "unchanged"}, {"measurement": "stability after being stored for 6 months", "setting": "[4]", "result": "excellent stability"}, {"measurement": "Purity (area %)", "setting": "[5]", "result": 98.23, "unit": "area %"}, {"measurement": "Purity/initial purity (%)", "setting": "[5]", "result": 100.0, "unit": "%"}, {"measurement": "Crystal form change", "setting": "[5]; XRPD", "result": "No"}, {"measurement": "AUC(0-t)", "setting": "[6]", "result": 7430, "unit": "ng·h/mL"}, {"measurement": "Cmax", "setting": "[6]", "result": 6600, "unit": "ng/mL"}, {"measurement": "Tmax", "setting": "[6]", "result": 30, "unit": "min"}, {"measurement": "half-life", "setting": "[6]", "result": 71.4, "unit": "min"}]}
{"smiles": "C[C@H](Cc1cnn[nH]1)OCC(=O)N1Cc2cnc(NC3Cc4ccccc4C3)nc2C1", "note": "[Crystal form A of hydrochloride]", "values": [{"measurement": "After DVS test Whether the crystal form is changed", "setting": "[1]", "result": "Yes*"}, {"measurement": "After DVS test Whether the crystal form is changed", "setting": "[1]; [9]", "result": "changed crystal form"}, {"measurement": "Hygroscopicity", "setting": "[1]", "result": "Moderately"}, {"measurement": "Vapor sorption (25° C./80% RH)", "setting": "[1]", "result": 3.85, "unit": "%"}, {"measurement": "Hygroscopicity", "setting": "[1]; [9]", "result": "had hygroscopicity"}, {"measurement": "DVS curve vapor sorption", "setting": "[1]", "result": "less than 3.85%"}, {"measurement": "Risk evaluation", "setting": "[1]", "result": "Significantly increased"}, {"measurement": "particle size", "setting": "[2]", "result": "less than 50 μm"}, {"measurement": "pH", "setting": "[3]; FaSSIF, 1 h", "result": 5.7}, {"measurement": "pH", "setting": "[3]; FaSSIF, 4 h", "result": 5.5}, {"measurement": "pH", "setting": "[3]; FaSSIF, 24 h", "result": 5.2}, {"measurement": "pH", "setting": "[3]; FeSSIF, 1 h", "result": 4.9}, {"measurement": "pH", "setting": "[3]; FeSSIF, 4 h", "result": 4.9}, {"measurement": "pH", "setting": "[3]; FeSSIF, 24 h", "result": 4.9}, {"measurement": "pH", "setting": "[3]; H2O, 1 h", "result": 2.3}, {"measurement": "pH", "setting": "[3]; H2O, 4 h", "result": 2.2}, {"measurement": "pH", "setting": "[3]; H2O, 24 h", "result": 2.3}, {"measurement": "pH", "setting": "[3]; SGF, 1 h", "result": 1.8}, {"measurement": "pH", "setting": "[3]; SGF, 4 h", "result": 1.8}, {"measurement": "pH", "setting": "[3]; SGF, 24 h", "result": 1.9}, {"measurement": "solubility in each system compared with that of the free base crystal form A", "setting": "[3]; SGF, FaSSIF, FeSSIF", "result": "significantly improved"}, {"measurement": "Purity/initial purity (%)", "setting": "Solid stability, 1 week; 25° C./60% RH", "result": 99.5, "unit": "%"}, {"measurement": "Purity (area %)", "setting": "Solid stability, 1 week; 25° C./60% RH", "result": 96.68, "unit": "area %"}, {"measurement": "Crystal form change", "setting": "Solid stability, 1 week; 25° C./60% RH", "result": "No"}, {"measurement": "Purity/initial purity (%)", "setting": "Solid stability, 1 week; 40° C./75% RH", "result": 79.9, "unit": "%"}, {"measurement": "XRPD crystallinity", "setting": "Solid stability, 1 week; 40° C./75% RH", "result": "decreased"}, {"measurement": "Purity (area %)", "setting": "Solid stability, 1 week; 40° C./75% RH", "result": 77.67, "unit": "area %"}, {"measurement": "Crystal form change", "setting": "Solid stability, 1 week; 40° C./75% RH", "result": "No*"}]}
